Source: ChEMBL document CHEMBL5390320, “Discovery of a Novel Benzodiazepine Series of Cbl-b Inhibitors for the Enhancement of Antitumor Immunity” (ACS Med Chem Lett, 2023)

Tests used:
[1] = molecular target: T1, E3 ubiquitin-protein ligase CBL-B (Homo sapiens, UniProt Q13191); test: Displacement of FAM-labeled probe from recombinant biotinylated Cbl-b (unknown origin) expressed in Escherichia coli BL21(DE3) Tuner cells by TR-FRET assay
[2] = molecular target: T1, E3 ubiquitin-protein ligase CBL-B; test: Inhibition of recombinant Cbl-b (unknown origin) ubiquitination incubated for 60 mins in presence of ATP by TR-FRET assay
[3] = Lipophilicity, log D of the compound in octanol and sodium phosphate buffer at pH 7.4 incubated for 3 hrs under shaking condition by shake flask method based LC-MS/MS analysis; format: physicochemical
[4] = molecular target: T2, Cholecystokinin receptor type A (Homo sapiens, UniProt P32238); test: Displacement of […] from human CCKA receptor expressed in CHO cell membrane incubated for 60 mins by scintillation counter method; format: toxicity, cell membranes
T2 sequence (P32238 whole entry): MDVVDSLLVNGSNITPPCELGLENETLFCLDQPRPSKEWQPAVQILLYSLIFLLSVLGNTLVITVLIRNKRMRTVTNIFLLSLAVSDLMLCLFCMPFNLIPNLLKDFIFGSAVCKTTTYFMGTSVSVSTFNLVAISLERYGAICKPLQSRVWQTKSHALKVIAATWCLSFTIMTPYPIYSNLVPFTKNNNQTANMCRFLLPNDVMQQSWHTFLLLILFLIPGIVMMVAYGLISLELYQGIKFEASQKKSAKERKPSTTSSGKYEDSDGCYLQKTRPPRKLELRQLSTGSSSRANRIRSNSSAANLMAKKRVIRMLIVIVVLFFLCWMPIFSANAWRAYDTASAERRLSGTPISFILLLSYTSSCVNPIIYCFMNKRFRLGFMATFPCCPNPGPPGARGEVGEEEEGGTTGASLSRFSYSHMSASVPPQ

[5] = molecular target: T1, E3 ubiquitin-protein ligase CBL-B; test: Inhibition of Cbl-b in cryo-preserved human CD3-positive T cells assessed as increase in IL-2 production preincubated for 1 hr followed by alpha-CD3 coated stimulation for 24 hrs by flow cytometry method; format: cell-based, CD3-positive T cell
[6] = molecular target: T1, E3 ubiquitin-protein ligase CBL-B; test: Inhibition of recombinant Cbl-b (unknown origin) mediated ZAP70 ubiquitination incubated for 60 mins by TR-FRET assay
[7] = molecular target: T1, E3 ubiquitin-protein ligase CBL-B; test: Binding affinity to avidin-biotinylated Cbl-b at (36 to 427 residues) (unknown origin) assessed as dissociation constant by SPR analysis

T1 sequence (Q13191 whole entry): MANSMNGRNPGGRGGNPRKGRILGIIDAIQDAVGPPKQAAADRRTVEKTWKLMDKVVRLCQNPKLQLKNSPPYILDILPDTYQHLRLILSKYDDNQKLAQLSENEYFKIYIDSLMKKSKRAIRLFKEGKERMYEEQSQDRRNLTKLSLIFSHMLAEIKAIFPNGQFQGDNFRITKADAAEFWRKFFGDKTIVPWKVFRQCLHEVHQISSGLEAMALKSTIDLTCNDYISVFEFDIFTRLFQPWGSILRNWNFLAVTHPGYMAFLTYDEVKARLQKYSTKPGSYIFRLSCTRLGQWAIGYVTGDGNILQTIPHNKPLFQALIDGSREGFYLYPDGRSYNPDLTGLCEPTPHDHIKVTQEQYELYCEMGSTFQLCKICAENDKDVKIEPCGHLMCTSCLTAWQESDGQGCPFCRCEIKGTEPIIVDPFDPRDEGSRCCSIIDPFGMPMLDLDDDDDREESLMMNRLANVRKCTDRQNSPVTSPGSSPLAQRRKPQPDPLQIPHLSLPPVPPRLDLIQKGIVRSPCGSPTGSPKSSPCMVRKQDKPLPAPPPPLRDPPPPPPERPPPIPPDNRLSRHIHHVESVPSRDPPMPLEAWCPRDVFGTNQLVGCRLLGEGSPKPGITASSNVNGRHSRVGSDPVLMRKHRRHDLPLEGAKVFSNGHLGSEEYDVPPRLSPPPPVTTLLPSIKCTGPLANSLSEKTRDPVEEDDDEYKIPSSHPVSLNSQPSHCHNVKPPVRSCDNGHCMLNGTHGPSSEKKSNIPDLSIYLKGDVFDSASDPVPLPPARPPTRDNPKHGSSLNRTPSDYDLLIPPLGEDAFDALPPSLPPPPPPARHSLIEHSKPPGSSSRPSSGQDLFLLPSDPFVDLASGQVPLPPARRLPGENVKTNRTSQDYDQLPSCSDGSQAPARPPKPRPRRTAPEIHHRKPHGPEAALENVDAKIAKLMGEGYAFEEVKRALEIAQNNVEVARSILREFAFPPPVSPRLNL

SMILES | IC50 [1] | logD at 3 h [3] | also measured
O=C(NC1N=C(c2ccccc2)c2ccccc2NC1=O)c1ccccc1CN1CCCCC1 (racemic) | > 100000 nM | – | –
C[C@H]1CN(Cc2ccccc2C(=O)N[C@H]2N=C(c3ccccc3)c3ccncc3NC2=O)CCO1 | 15 nM | 3.3 | IC50 [2]: 50500 nM; Ki [4]: > 100000 nM; EC50 [5]: 410 nM; IC50 [6]: 37200 nM
C[C@@H]1CN(Cc2ccccc2C(=O)NC2N=C(c3ccccc3)c3ccccc3NC2=O)CCO1 (mixture of isomers) | 31 nM | 4.1 | –
C[C@H]1CCCN(Cc2cc3c(c(C(F)(F)F)c2)CN(c2cccc([C@]4(c5nncn5C)C[C@@H](C)C4)c2)C3=O)C1 | 9 nM | – | Kd [7]: 3 nM
C[C@@H]1CN(Cc2ccccc2C(=O)NC2N=C(c3ccccc3)c3ccccc3NC2=O)C[C@H](C)O1 (mixture of isomers) | 1800 nM | 4.3 | –
O=C(NC1N=C(c2ccccc2)c2ccccc2NC1=O)c1cnccc1CN1CCOCC1 (racemic) | 1300 nM | 2.7 | –
O=C(NC1N=C(c2ccccc2)c2ccccc2NC1=O)c1sccc1CN1CCOCC1 (racemic) | 360 nM | 3.3 | –
C[C@@H]1COCCN1Cc1ccccc1C(=O)NC1N=C(c2ccccc2)c2ccccc2NC1=O (mixture of isomers) | 4800 nM | 3.9 | –
O=C(NC1N=C(c2ccccc2)c2ccccc2NC1=O)c1ccoc1CN1CCOCC1 (racemic) | 1500 nM | 3.1 | –
Cn1ncc2c1CN(Cc1ccccc1C(=O)NC1N=C(c3ccccc3)c3ccccc3NC1=O)C2 (racemic) | 350 nM | 3.8 | –
C[C@H]1CN(Cc2ccccc2C(=O)N[C@H]2N=C(c3ccccc3)c3ccc(C(=O)N4CCN(C)C(=O)C4)cc3NC2=O)CCO1 | 13 nM | 2.5 | Ki [4]: > 100000 nM; EC50 [5]: 1650 nM
O=C(NC1N=C(c2ccccc2)c2ccccc2NC1=O)c1ccccc1CN1CCOCC1 (racemic) | 210 nM | 3.8 | Kd [7]: 400 nM
O=C(NC1N=C(c2ccccc2)c2ccccc2NC1=O)c1ccccc1N1CCOCC1 (racemic) | > 100000 nM | – | –
C[C@H]1CN(Cc2ccccc2C(=O)N[C@H]2N=C(c3ccccc3)c3ccccc3NC2=O)CCO1 | 13 nM | 4.1 | Ki [4]: 3720 nM; EC50 [5]: 14000 nM
O=C(NC1N=C(c2ccccc2)c2ccccc2NC1=O)c1ccccc1CN1CCn2nncc2C1 (racemic) | 300 nM | 2.9 | –
O=C(NC1N=C(c2ccncc2)c2ccccc2NC1=O)c1ccccc1CN1CCOCC1 (racemic) | 2000 nM | 2.6 | –
C[C@H]1CN(Cc2ccccc2C(=O)NC2N=C(c3ccccc3)c3ccccc3NC2=O)CCO1 (mixture of isomers) | 26 nM | 4.2 | –
C[C@H]1COCCN1Cc1ccccc1C(=O)NC1N=C(c2ccccc2)c2ccccc2NC1=O (mixture of isomers) | 1900 nM | 4 | –
O=C(NC1N=C(c2ccc[nH]c2=O)c2ccccc2NC1=O)c1ccccc1CN1CCOCC1 (racemic) | 20000 nM | 1.2 | –
CC1(C)CN(Cc2ccccc2C(=O)NC2N=C(c3ccccc3)c3ccccc3NC2=O)CCO1 (racemic) | 3900 nM | 4.3 | –
O=C(N[C@@H]1N=C(c2ccccc2)c2ccccc2NC1=O)c1ccccc1CN1CCOCC1 | 8000 nM | 3.9 | –
O=C(NC1N=C(c2cc[nH]c(=O)c2)c2ccccc2NC1=O)c1ccccc1CN1CCOCC1 (racemic) | 11000 nM | 1.7 | –
COCCNC(=O)c1ccc2c(c1)NC(=O)[C@@H](NC(=O)c1ccccc1CN1CCO[C@@H](C)C1)N=C2c1ccccc1 | 13 nM | 3.7 | Ki [4]: 24300 nM; EC50 [5]: 2610 nM
C[C@@H]1CN(Cc2ccccc2C(=O)N[C@H]2N=C(c3ccccc3)c3ccccc3NC2=O)CCO1 | 10 nM | 4.1 | Ki [4]: 2630 nM; EC50 [5]: > 30000 nM
O=C(N[C@H]1N=C(c2ccccc2)c2ccccc2NC1=O)c1ccccc1CN1CCOCC1 | 94 nM | 3.9 | –
O=C(NC1N=C(c2ccccc2)c2ccccc2NC1=O)c1ccccc1CN1CCn2nccc2C1 (racemic) | 710 nM | 3.9 | –
